Reference: patent publication US8754105B2, “Macrocyclic inhibitors of hepatitis C virus” (Medivir AB, priority 2005, dated 2014)
pEC50, pKi: −log10 of the molar value.

Columns and labels:
[1] = system: HCV type 1b replicon in Huh-7 luc/neo cells; assay: HCV replicon assay (Huh-Luc cells, luciferase readout); type: cell-based; settings: Hepatitis C virus, Huh-7, 72 h, three days incubation, luciferase activity
From the text: The compounds of formula (I) were examined for activity in the inhibition of HCV RNA replication in a cellular assay. […] The cellular assay was based on a bicistronic expression construct, as described by Lohmann et al. (1999) Science vol. 285 pp. 110-113 with modifications described by Krieger et al. (2001) Journal of Virology 75: 4614-4624, in a multi-target screening strategy. In essence, the method was as follows.
The assay utilized the stably transfected cell line Huh-7 luc/neo (hereafter referred to as Huh-Luc). This cell line harbors an RNA encoding a bicistronic expression construct comprising the wild type NS3-NS5B regions of HCV type 1b translated from an Internal Ribosome Entry Site (IRES) from encephalomyocarditis virus (EMCV), preceded by a reporter portion (FfL-luciferase), and a selectable marker portion (neo^R, neomycine phosphotransferase). The construct is bordered by 5′ and 3′ NTRs (non-translated regions) from HCV type 1b. Continued culture of the replicon cells in the presence of G418 (neo^R) is dependent on the replication of the HCV RNA. The stably transfected replicon cells that express HCV RNA, which replicates autonomously and to high levels, encoding inter alia luciferase, are used for screening the antiviral compounds.
The replicon cells were plated in 384 well plates in the presence of the test and control compounds which were added in various concentrations. Following an incubation of three days, HCV replication was measured by assaying luciferase activity (using standard luciferase assay substrates and reagents and a Perkin Elmer ViewLux™ ultraHTS microplate imager). Replicon cells in the control cultures have high luciferase expression in the absence of any inhibitor. The inhibitory activity of the compound on luciferase activity was monitored on the Huh-Luc cells, enabling a dose-response curve for each test compound.

[2] = target: full-length hepatitis C NS3 protease with NS4A cofactor (Hepatitis C virus genotype 1a (isolate H77) (HCV), UniProt P27958); assay: HCV NS3/4A protease inhibition (enzymatic) assay
Sequence of full-length hepatitis C NS3 protease with NS4A cofactor (P27958 1027-1657): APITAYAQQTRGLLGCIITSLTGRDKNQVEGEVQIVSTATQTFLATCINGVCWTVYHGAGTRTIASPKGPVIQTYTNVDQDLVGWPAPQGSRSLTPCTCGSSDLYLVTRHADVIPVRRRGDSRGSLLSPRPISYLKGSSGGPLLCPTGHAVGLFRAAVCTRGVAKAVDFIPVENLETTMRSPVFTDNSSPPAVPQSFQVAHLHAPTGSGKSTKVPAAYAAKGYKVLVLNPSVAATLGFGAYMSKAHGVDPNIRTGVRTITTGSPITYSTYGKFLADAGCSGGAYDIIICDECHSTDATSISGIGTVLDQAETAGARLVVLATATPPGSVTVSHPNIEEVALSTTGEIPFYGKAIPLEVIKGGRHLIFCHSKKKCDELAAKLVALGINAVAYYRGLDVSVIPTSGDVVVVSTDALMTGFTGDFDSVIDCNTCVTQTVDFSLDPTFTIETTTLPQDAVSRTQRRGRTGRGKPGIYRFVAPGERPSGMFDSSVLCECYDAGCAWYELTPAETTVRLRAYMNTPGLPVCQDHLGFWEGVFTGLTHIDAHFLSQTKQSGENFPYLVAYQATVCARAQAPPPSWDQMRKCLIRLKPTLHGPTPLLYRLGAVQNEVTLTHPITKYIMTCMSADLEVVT
Method: The aim of this in vitro assay was to measure the inhibition of HCV NS3/4A protease complexes by the compounds of the present invention.
The inhibition of full-length hepatitis C NS3 protease enzyme was measured essentially as described in Poliakov, 2002 Prot Expression & Purification 25 363 371. Briefly, the hydrolysis of a depsipeptide substrate, Ac-DED(Edans)EEAbuψ[COO]ASK(Dabcyl)-NH2 (AnaSpec, San José, USA), was measured spectrofluorometrically in the presence of a peptide cofactor, [sequence] […] The enzyme (1 nM) was incubated in 50 mM HEPES, pH 7.5, 10 mM DTT, 40% glycerol, 0.1% n-octyl-D-glucoside, with 25 μM NS4A cofactor and inhibitor at 30° C. for 10 min, whereupon the reaction was initiated by addition of 0.5 μM substrate. Inhibitors were dissolved in DMSO, sonicated for 30 sec. and vortexed. The solutions were stored at −20° C. between measurements.
The final concentration of DMSO in the assay sample was adjusted to 3.3%. The rate of hydrolysis was corrected for inner filter effects according to published procedures. […] A minimum of two replicates was performed for all measurements.

Compound | pEC50 [1] | pKi [2]
COc1ccc2c(O[C@@H]3C[C@H]4C(=O)N[C@]5(C(=O)NS(=O)(=O)C6CC6)C[C@H]5/C=C\CCCCOC(=O)N4C3)cc(-c3ccccc3)nc2c1 [Compound 23, N-[17-(7-methoxy-2-phenylquinolin-4-yloxy)-2,14-dioxo-3,15-diaza-13-oxatricyclo[13.3.0.0^4,6]octadec-7-ene-4-carbonyl](cyclopropyl)-sulfonamide] | 5.97 | 9.70
COc1ccc2c(O[C@@H]3C[C@H]4C(=O)N[C@]5(C(=O)O)C[C@H]5/C=C\CCCCOC(=O)N4C3)cc(-c3ccccc3)nc2c1 [Compound 22, 17-(7-methoxy-2-phenylquinolin-4-yloxy)-2,14-dioxo-3,15-diaza-13-oxatricyclo[13.3.0.0^4,6]octadec-7-ene-4-carboxylic acid] | < 5.00 | 5.97
COc1ccc2c(O[C@@H]3C[C@H]4C(=O)N[C@]5(C(=O)O)C[C@H]5/C=C\CCCCOC(=O)N4C3)nc(Cl)cc2c1 [Compound 16, 17-(3-chloro-6-methoxyisoquinolin-1-yloxy)-2,14-dioxo-3,15-diaza-13-oxatricyclo[13.3.0.0^4,6]octadec-7-ene-4-carboxylic acid] | < 5.00 | 6.00
COc1ccc2c(O[C@@H]3C[C@H]4C(=O)N[C@]5(C(=O)NS(=O)(=O)C6CC6)C[C@H]5/C=C\CCCCOC(=O)N4C3)nc(Cl)cc2c1 [Compound 17, N-[17-(3-chloro-6-methoxyisoquinolin-1-yloxy)-2,14-dioxo-3,15-diaza-13-oxatricyclo[13.3.0.0^4,6]octadec-7-ene-4-carbonyl](cyclopropyl) sulfonamide] | < 5.00 | 7.37
COc1ccc2c(O[C@@H]3C[C@H]4C(=O)N[C@]5(C(=O)O)C[C@H]5/C=C\CCCCCOC(=O)N4C3)cc(-c3ccccc3)nc2c1 [Compound 24, 18-(7-methoxy-2-phenylquinolin-4-yloxy)-2,15-dioxo-3,16-diaza-14-oxatricyclo[14.3.0.0^4,6]nonadec-7-ene-4-carboxylic acid] | < 5.00 | 7.40
COc1ccc2c(O[C@@H]3C[C@H]4C(=O)N[C@]5(C(=O)NS(=O)(=O)C6CC6)C[C@H]5/C=C\CCCCCOC(=O)N4C3)cc(-c3ccccc3)nc2c1 [Compound 25, N-[18-(7-methoxy-2-phenylquinolin-4-yloxy)-2,15-dioxo-3,16-diaza-14-oxatricyclo[14.3.0.0^4,6]nonadec-7-ene-4-carbonyl](cyclopropyl)-sulfonamide] | 6.32 | 8.62
